Data published in US6537948B1, “Uracil compounds and use thereof” (Sumitomo Chemical Company, Limited, priority 2000, dated 2003).

How the values were obtained:
Type in all cases: in vivo
[1] = system: johnsongrass (Sorghum halepense); experiment: Test Example 8: foliar spray, herbicidal activity index; design: key: “0” means that there was no or little difference in the degree of germination or growth between the treated and the untreated tested plants at the time of examination; “10” means that the test plants died complete or their germination or growth was completely inhibited; conditions: foliar spray 373 liters per hectare, examined after 4 days, index 0-10
Method: (§1) A plastic pot having longer side of 16.5 cm, shorter side of 12 cm and depth of 7 cm was filled with soil and then seeded with large crabgrass (Digitaria sanguinalis), giant foxtail (Setaria faberi) and johnsongrass (Sorghum halepense). These test plants were grown in a greenhouse for 25 days. Then, each of the present compound 2-52 and C was formulated into an emulsifiable concentrate according to Formulation Example 2 and then diluted to the prescribed amount with water containing a spreading agent and the dilution was uniformly sprayed over the foliage of the test plants with a sprayer at a rate of 373 liters per hectare. After the application, the test plants were grown in the greenhouse for 4 days, and the herbicidal activity was examined. (In the Table 14, the test plants are shown as follows.
(§2) Large crabgrass: LC, Giant foxtail: GF, Johnsongrass: J

[2] = system: giant foxtail (Setaria faberi); experiment: as above; design: key: “0” means that there was no or little difference in the degree of germination or growth between the treated and the untreated tested plants at the time of examination; “10” means that the test plants died complete or their germination or growth was completely inhibited; conditions: foliar spray 373 liters per hectare, examined after 4 days, index 0-10
Method: as §1, §2

[3] = system: large crabgrass (Digitaria sanguinalis); experiment: as above; design: key: “0” means that there was no or little difference in the degree of germination or growth between the treated and the untreated tested plants at the time of examination; “10” means that the test plants died complete or their germination or growth was completely inhibited; conditions: foliar spray 373 liters per hectare, examined after 4 days, index 0-10
Method: as §1, §2

wild oat (Avena fatua) = experiment: Test Example 7: foliar spray, herbicidal activity index; conditions: 4 days after application, index 0-10
Method: (§3) A plastic pot having longer side of 27 cm, shorter side of 19 cm and depth of 7 cm was filled with soil and then seeded with large crabgrass (Digitaria sanguinalis) and giant foxtail (Setaria faberi). Nine days after, barnyardgrass (Echinochloa crus-galli) was seeded therein and grown for 15 days in a greenhouse. Further, a plastic pot having longer side of 16.5 cm, shorter side of 12 cm and depth of 7 cm was filled with soil and then seeded with wild oat (Avena fatua), and grown for 18 days in a greenhouse. Then, each of the present compound 1-45 and B was formulated into an emulsifiable concentrate according to Formulation Example 2 and then diluted to the prescribed amount with water containing a spreading agent and the dilution was uniformly sprayed over the foliage of the test plants with a sprayer at a rate of 1000 liters per hectare. After the application, the test plants were grown in the greenhouse for 4 days, and the herbicidal activity was examined. (In the Table 13, the test plants are shown as follows.
(§4) Barnyardgrass: B, Large crabgrass: LC, Giant foxtail: GF, Wild oat: W

[4] = system: ivyleaf morningglory (Ipomoea hederacea); experiment: Test Example 1: foliar treatment of field; conditions: foliar spray, dosage 125 g/ha, 16 days after application
Method: (§5) A cylindrical plastic pot having a diameter of 10 cm and a depth of 10 cm was filled with soil and then seeded with ivyleaf morningglory (Ipomoea hederacea) and velvetleaf (Abutilon theophrasti). These test plants were grown in a greenhouse for 10 days. Then, each of compounds 1-2, 1-42, 1-45, 1-48, 2-2, 2-7, 2-42, 2-45, 3-2, 3-12, 4-7, 4-85, 5-12-R, 5-12-S, 5-17, 6-2, 7-2, 7-6, 7-8, 7-12, 7-48, 7-50, 7-84, 7-118, 7-119, 7-125, 9-7, 9-27 and 9-45 was formulated into an emulsifiable concentrate according to Formulation Example 2 and then diluted to the prescribed amount with water containing a spreading agent and the dilution was uniformly sprayed over the foliage of the test plants with a sprayer at a rate of 1000 liters per hectare. After the application, the test plants were grown in the greenhouse for 16 days, and the herbicidal activity was determined.

[5] = system: velvetleaf (Abutilon theophrasti); experiment: Test Example 1: foliar treatment of field; conditions: foliar spray, dosage 125 g/ha, 16 days after application
Method: as §5

[6] = system: giant foxtail (Setaria faberi); experiment: Test Example 7: foliar spray, herbicidal activity index; design: key: “0” means that there was no or little difference in the degree of germination or growth between the treated and the untreated tested plants at the time of examination; “10” means that the test plants died complete or their germination or growth was completely inhibited; conditions: 4 days after application, index 0-10
Method: as §3, §4

[7] = system: large crabgrass (Digitaria sanguinalis); experiment: as above; design: key: “0” means that there was no or little difference in the degree of germination or growth between the treated and the untreated tested plants at the time of examination; “10” means that the test plants died complete or their germination or growth was completely inhibited; conditions: 4 days after application, index 0-10
Method: as §3, §4

[8] = system: barnyardgrass (Echinochloa crus-galli); experiment: as above; design: key: “0” means that there was no or little difference in the degree of germination or growth between the treated and the untreated tested plants at the time of examination; “10” means that the test plants died complete or their germination or growth was completely inhibited; conditions: 4 days after application, index 0-10
Method: as §3, §4

COC(=O)C(C)Nc1cccnc1Oc1cc(-n2c(=O)cc(C(F)(F)F)n(C)c2=O)c(F)cc1Cl (stereo not shown) [Compound 2-52, 2-{2-chloro-4-fluoro-5-[3-methyl-2,6-dioxo-4-(trifluoromethyl)-1,2,3,6-tetrahydropyrimidin-1-yl]phenoxy}-3-{1-(methoxycarbonyl)ethylamino}pyridine]
Herbicidal activity J ([1]; dosage 32 g/ha): 10
Herbicidal activity J ([1]; dosage 125 g/ha): 10
Herbicidal activity GF ([2]; dosage 32 g/ha): 9
Herbicidal activity GF ([2]; dosage 125 g/ha): 10
Herbicidal activity LC ([3]; dosage 32 g/ha): 9
Herbicidal activity LC ([3]; dosage 125 g/ha): 10

COC(=O)COc1cc(OC)nc(Oc2cc(-n3c(=O)cc(C(F)(F)F)n(C)c3=O)c(F)cc2Cl)n1 [Compound 1-45, 2-{2-chloro-4-fluoro-5-[3-methyl-2,6-dioxo-4-(trifluoromethyl)-1,2,3,6-tetrahydropyrimidin-1-yl]phenoxy}-6-methoxy-4-(methoxycarbonyl)methoxypyrimidine]
Herbicidal activity W (wild oat (Avena fatua); dosage 32 g/ha): 9
Herbicidal activity W (wild oat (Avena fatua); dosage 125 g/ha): 9
growth of ivyleaf morningglory (herbicidal activity) [4]: completely controlled
growth of velvetleaf (herbicidal activity) [5]: completely controlled
Herbicidal activity GF ([6]; dosage 32 g/ha): 10
Herbicidal activity GF ([6]; dosage 125 g/ha): 10
Herbicidal activity LC ([7]; dosage 32 g/ha): 10
Herbicidal activity LC ([7]; dosage 125 g/ha): 10
Herbicidal activity B ([8]; dosage 32 g/ha): 10
Herbicidal activity B ([8]; dosage 125 g/ha): 10

CC(=O)Nc1cccnc1Oc1cc(-n2c(=O)cc(C(F)(F)F)n(N)c2=O)c(F)cc1Cl [C, reference compound]
Herbicidal activity J ([1]; dosage 32 g/ha): 8
Herbicidal activity J ([1]; dosage 125 g/ha): 10
Herbicidal activity GF ([2]; dosage 32 g/ha): 6
Herbicidal activity GF ([2]; dosage 125 g/ha): 9
Herbicidal activity LC ([3]; dosage 32 g/ha): 7
Herbicidal activity LC ([3]; dosage 125 g/ha): 9
